Laboratory results reported in patent US8445536B2, “Arginine-containing compositions and methods for increasing blood flow using same” (Ajinomoto Co., Inc., priority 2005, dated 2013).
Where two headings read alike, the source gives them in different places.

Columns and labels:
human beings = human beings of average weight 78 kg, cited from earlier work
male SD rats [1] = assay: Test Example 2: blood flow in the capillaries of various organs, microsphere method
Procedure: (b) Operation: Catheters were inserted into the carotid artery, jugular vein, and femoral artery of rats under anesthesia.
After taking enough time from the second administration of the microsphere, the rats were euthanasized, and the muscles, digestive tracts, liver, kidneys, spleen, heart, brain, adipose tissues, and abdominal skin were extracted. Then, the microspheres contained in each organ were collected and the rate of change in blood flow was calculated for each organ from the amount of the microspheres.

male SD rats [2] = assay: Test Example 1: blood pressure when administering arginine to rats (arterial catheter); conditions: 500 mg of arginine per 1 kg body weight, iv over 30 min
male SD rats [3] = assay: Test Example 5: amounts of Evans' Blue delivered to various organs after arginine
Procedure: (b) Operation: A catheter was inserted into the jugular vein of rats under anesthesia. Then, a blood sample was collected from the catheter.
After sufficient time, the rats were euthanasized, and the muscles, digestive tracts, liver, kidneys, spleen, heart, brain, adipose tissues, and abdominal skin were extracted. Then, Evans' Blue was released by immersing each organ in a formalin solution, and the amount of Evans' Blue in each organ was calculated from the absorbance obtained by the spectrophotometer.

male SD rats [4] = assay: Test Example 2: variation of blood pressure; conditions: 50 or 150 mg of arginine per 1 kg body weight, iv over 30 min
[5] = Test Example 3: concentration of free arginine in the blood plasma on intravenous arginine; assay type: in vivo, rats; conditions: for concentration at 10 min / concentration at 20 min / concentration at 30 min / concentration at 40 min: Sprague-Dawley, rat, plasma, iv
From the text: (c) Rats were anesthetized by pentobarbital. […] (b) Administration: […]

male SD rats [6] = assay: Test Example 4: blood pressure when administering arginine and glutamine to rats; conditions: 50 mg arginine/kg over 30 min; 20 to 30 min after injection; average of 3 rats
male SD rats [7] = assay: Test Example 1: blood flow at the skin of the lower thighs, laser Doppler blood-flowmeter; conditions: for Maximum increasing rate of blood flow (Before administration: 100%): skin of lower thighs
[8] = 50 mg of arginine per 1 kg body weight
[9] = 150 mg of arginine per 1 kg body weight

SMILES: N=C(N)NCCC[C@H](N)C(=O)O [arginine]
- vascular resistance (human beings; 6 g arginine parenterally): did not cause either effect
- vascular resistance (human beings; 30 g arginine parenterally): lowered
- blood flow in the capillaries of the muscles and the brain (male SD rats [1]; [8]): significantly increased
- blood flow in the capillaries, all organs measured (male SD rats [1]; [9]): increased for all organs measured
- Changes in blood flow after the administration of arginine (before administration 100%) (male SD rats [1]; Abdominal skin, 50 mg/kg of body weight): 117%
- Changes in blood flow after the administration of arginine (before administration 100%) (male SD rats [1]; Abdominal skin, 150 mg/kg of body weight): 134%
- Changes in blood flow after the administration of arginine (before administration 100%) (male SD rats [1]; Adipose tissues, 50 mg/kg of body weight): 99%
- Changes in blood flow after the administration of arginine (before administration 100%) (male SD rats [1]; Adipose tissues, 150 mg/kg of body weight): 116%
- Changes in blood flow after the administration of arginine (before administration 100%) (male SD rats [1]; Back skin, 50 mg/kg of body weight): 107%
- Changes in blood flow after the administration of arginine (before administration 100%) (male SD rats [1]; Back skin, 150 mg/kg of body weight): 118%
- Changes in blood flow after the administration of arginine (before administration 100%) (male SD rats [1]; Brain, 50 mg/kg of body weight): 126%
- Changes in blood flow after the administration of arginine (before administration 100%) (male SD rats [1]; Brain, 150 mg/kg of body weight): 137%
- Changes in blood flow after the administration of arginine (before administration 100%) (male SD rats [1]; Duodenum, 50 mg/kg of body weight): 123%
- Changes in blood flow after the administration of arginine (before administration 100%) (male SD rats [1]; Duodenum, 150 mg/kg of body weight): 142%
- Changes in blood flow after the administration of arginine (before administration 100%) (male SD rats [1]; Heart, 50 mg/kg of body weight): 126%
- Changes in blood flow after the administration of arginine (before administration 100%) (male SD rats [1]; Heart, 150 mg/kg of body weight): 140%
- Changes in blood flow after the administration of arginine (before administration 100%) (male SD rats [1]; Kidneys, 50 mg/kg of body weight): 86%
- Changes in blood flow after the administration of arginine (before administration 100%) (male SD rats [1]; Kidneys, 150 mg/kg of body weight): 91%
- Changes in blood flow after the administration of arginine (before administration 100%) (male SD rats [1]; Liver, 50 mg/kg of body weight): 92%
- Changes in blood flow after the administration of arginine (before administration 100%) (male SD rats [1]; Liver, 150 mg/kg of body weight): 101%
- Changes in blood flow after the administration of arginine (before administration 100%) (male SD rats [1]; Muscles, 50 mg/kg of body weight): 164%
- Changes in blood flow after the administration of arginine (before administration 100%) (male SD rats [1]; Muscles, 150 mg/kg of body weight): 157%
- Changes in blood flow after the administration of arginine (before administration 100%) (male SD rats [1]; Spleen, 50 mg/kg of body weight): 104%
- Changes in blood flow after the administration of arginine (before administration 100%) (male SD rats [1]; Spleen, 150 mg/kg of body weight): 115%
- death due to rapid reduction of blood pressure (male SD rats [2]): Two out of three rats died
- delivered amounts of Evans' Blue to the organs (tendency) (male SD rats [3]; 50 or 150 mg of arginine per 1 kg, muscles, digestive tract, liver, kidneys, spleen, brain, adipose tissues, skin): increased
- Changes in the amounts of Evans' Blue after administering arginine (before administration 100%) (male SD rats [3]; Abdominal skin, 150 mg/kg of BW): 207%
- Changes in the amounts of Evans' Blue after administering arginine (before administration 100%) (male SD rats [3]; Adipose tissues, 50 mg/kg of BW): 430%
- Changes in the amounts of Evans' Blue after administering arginine (before administration 100%) (male SD rats [3]; Adipose tissues, 150 mg/kg of BW): 160%
- Changes in the amounts of Evans' Blue after administering arginine (before administration 100%) (male SD rats [3]; Back skin, 50 mg/kg of BW): 315%
- Changes in the amounts of Evans' Blue after administering arginine (before administration 100%) (male SD rats [3]; Back skin, 150 mg/kg of BW): 331%
- Changes in the amounts of Evans' Blue after administering arginine (before administration 100%) (male SD rats [3]; Brain, 50 mg/kg of BW): 169%
- Changes in the amounts of Evans' Blue after administering arginine (before administration 100%) (male SD rats [3]; Duodenum, 50 mg/kg of BW): 143%
- Changes in the amounts of Evans' Blue after administering arginine (before administration 100%) (male SD rats [3]; Duodenum, 150 mg/kg of BW): 85%
- Changes in the amounts of Evans' Blue after administering arginine (before administration 100%) (male SD rats [3]; Gastrocnemius muscle, 50 mg/kg of BW): 219%
- Changes in the amounts of Evans' Blue after administering arginine (before administration 100%) (male SD rats [3]; Gastrocnemius muscle, 150 mg/kg of BW): 154%
- Changes in the amounts of Evans' Blue after administering arginine (before administration 100%) (male SD rats [3]; Heart, 50 mg/kg of BW): 87%
- Changes in the amounts of Evans' Blue after administering arginine (before administration 100%) (male SD rats [3]; Heart, 150 mg/kg of BW): 85%
- Changes in the amounts of Evans' Blue after administering arginine (before administration 100%) (male SD rats [3]; Kidneys, 50 mg/kg of BW): 161%
- Changes in the amounts of Evans' Blue after administering arginine (before administration 100%) (male SD rats [3]; Liver, 50 mg/kg of BW): 181%
- Changes in the amounts of Evans' Blue after administering arginine (before administration 100%) (male SD rats [3]; Liver, 150 mg/kg of BW): 173%
- Changes in the amounts of Evans' Blue after administering arginine (before administration 100%) (male SD rats [3]; Spleen, 50 mg/kg of BW): 101%
- Changes in the amounts of Evans' Blue after administering arginine (before administration 100%) (male SD rats [3]; Spleen, 150 mg/kg of BW): 92%
- variation of blood pressure (male SD rats [4]): ≤ 10 mmHg
- rise of the concentration of free arginine in the blood plasma at maximum [5, 8]: 46.1 micrograms per 1 mL
- rise of the concentration of free arginine in the blood plasma at maximum [5, 9]: 177.5 micrograms per 1 mL
- concentration at 10 min ([5]; 50 mg/kg): 43.6 µg/mL
- concentration at 20 min ([5]; 50 mg/kg): 46.1 µg/mL
- concentration at 30 min ([5]; 50 mg/kg): 38.8 µg/mL
- concentration at 40 min ([5]; 50 mg/kg): 15.7 µg/mL
- concentration at 10 min ([5]; 150 mg/kg): 156 µg/mL
- concentration at 20 min ([5]; 150 mg/kg): 115 µg/mL
- concentration at 30 min ([5]; 150 mg/kg): 178 µg/mL
- concentration at 40 min ([5]; 150 mg/kg): 77.2 µg/mL
- Maximum variation of blood pressure (male SD rats [6]): +11.4 mmHg
- Maximum increasing rate of blood flow (Before administration: 100%) (male SD rats [7]; 50 mg arginine/kg iv over 30 min, 20 to 30 min after injection): +43.9%
- Maximum increasing rate of blood flow (Before administration: 100%) (male SD rats [7]; 150 mg arginine/kg iv over 30 min, 20 to 30 min after injection): +29.3%
- Maximum increasing rate of blood flow (Before administration: 100%) (male SD rats [7]; 500 mg arginine/kg iv over 30 min, 50 to 60 min after injection): +85.0%
- amount of blood flowing to the skin of the lower thighs (male SD rats [7]; all rats given 50 mg or more of arginine per 1 kg body weight): increased
